Reference: patent publication US20110065663A1, “ANTI-CANCER COMBINATION THERAPY” (Katholieke Universiteit Leuven, K.U. Leuven R&D, priority 2008, published 2011)
Like-named read-outs stand apart in the source and are kept apart here.

Columns and labels:
M. hyorhinis TP = test: TP activity in the medium of MCF-7/HYOR cell cultures (HPLC, conversion of nucleoside to free base); type: biochemical, Mycoplasma hyorhinis; conditions: 200 μM substrate, 37° C.
Method: The TP activity of M. hyorhinis and the conversion of dThd, FdUrd, 5′DFUR and TFT to thymine, 5FU, 5FU or TF-thymine respectively were measured by high-pressure liquid chromatography (HPLC) analysis. MCF-7 and MCF-7/HYOR cells were seeded at a density of 20,000 cells/cm^2 in DMEM with 10% FBS. Four days later, the medium was collected and cleared by centrifugation at 1,400 rpm. For some experiments, the medium of MCF-7/HYOR cells was filtered using a 0.1 μm micro filter (Acrodisc syringe filter, PALL Corporation, East Hills, N.Y.) to remove the mycoplasmas from the medium. 600 μl of the medium was incubated with 200 μM of substrate (dThd, 5′DFUR, TFT or FdUrd) at 37° C. in the presence or absence of 10 μM TPi. At different time points (i.e. 0, 15, 30, 60, 120 minutes and 16 hours), 100 μl aliquots were withdrawn, transferred to Eppendorf tubes and heated at 95° C. for 3 min. Next, the samples were rapidly cooled on ice, exposed for 20 min to 200 μl ice-cold methanol and cleared by centrifugation at 15,000 rpm for 15 minutes. As a positive control, an enzyme activity assay with E. coli TP (Sigma) was performed. For this reaction, 0.025 U of TP were incubated with 200 μM of substrate in TP-buffer (10 mM Tris-HCl, pH 7.6, 1 mM EDTA, 2 mM potassium phosphate and 150 mM NaCl) in a total volume of 600 μl. Aliquots of 100 μl were withdrawn from the reaction mixture at several time points and treated as described above. The nucleosides were separated from their nucleobases on a reversed-phase RP-8 column (Merck, Darmstadt, Germany) and quantified by HPLC analysis (Aliance 2690, Waters, Milford, Mass.). The separation was performed by a linear gradient from 100% buffer B (50 mM NaH2PO4 and 5 mM heptane sulfonic acid, pH 3.2), to 20% buffer B and 80% acetonitrile. […] UV-based detection of all nucleosides was performed at 267 nm.

MCF-7/HYOR cells = test: Nucleotide incorporation assay, MCF-7/HYOR compared with MCF-7 cells; type: cell-based, human; conditions: 1 μCi radiolabeled compound; FIG. 4
Method: MCF-7 and MCF-7/HYOR cells were seeded at 10,000 cells/cm. After 48 hours, cells were treated with 1 μCi of ^3H-labeled nucleoside with or without 10 μM TPi. 16 h later, the medium was removed and the cells were washed twice with PBS. Next, the cells were trypsinized, transferred to Eppendorf tubes and centrifuged for 10 minutes at 1,400 rpm. The pellet was resuspended in 1 ml absolute ice-cold methanol and kept on ice for 20 minutes. After centrifugation for 20 minutes at 13,000 rpm the pellet was washed twice with methanol, resuspended in methanol and transferred to scintillation vials containing 9 ml of Ready safe liquid scintillation reagent (‘Hisafe 3’, Perkin Elmer, Waltham, Mass.). The radioactivity was measured by a Liquid scintillation analyzer (2300 TR, Packard, Canberra, Australia).

E. coli TP = target: T1, E. coli TP (Escherichia coli, UniProt P07650); test: Enzyme activity assay with recombinant E. coli TP (positive control); type: biochemical; conditions: 0.025 U TP, 200 μM substrate
T1 construct: purchased Sigma
T1 sequence (P07650 whole entry): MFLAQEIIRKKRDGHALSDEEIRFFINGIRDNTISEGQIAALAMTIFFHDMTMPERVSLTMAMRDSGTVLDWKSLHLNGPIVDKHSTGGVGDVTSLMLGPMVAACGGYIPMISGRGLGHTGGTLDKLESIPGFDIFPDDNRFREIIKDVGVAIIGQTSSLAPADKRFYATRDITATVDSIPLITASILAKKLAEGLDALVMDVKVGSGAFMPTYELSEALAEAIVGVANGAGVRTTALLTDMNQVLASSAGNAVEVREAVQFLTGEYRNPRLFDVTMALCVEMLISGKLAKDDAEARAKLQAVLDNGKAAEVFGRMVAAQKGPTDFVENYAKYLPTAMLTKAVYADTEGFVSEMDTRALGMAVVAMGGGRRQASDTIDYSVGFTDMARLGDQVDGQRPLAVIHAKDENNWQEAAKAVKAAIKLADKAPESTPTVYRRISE
Method: The TP activity of M. hyorhinis and the conversion of dThd, FdUrd, 5′DFUR and TFT to thymine, 5FU, 5FU or TF-thymine respectively were measured by high-pressure liquid chromatography (HPLC) analysis. MCF-7 and MCF-7/HYOR cells were seeded at a density of 20,000 cells/cm^2 in DMEM with 10% FBS. Four days later, the medium was collected and cleared by centrifugation at 1,400 rpm. For some experiments, the medium of MCF-7/HYOR cells was filtered using a 0.1 μm micro filter (Acrodisc syringe filter, PALL Corporation, East Hills, N.Y.) to remove the mycoplasmas from the medium. 600 μl of the medium was incubated with 200 μM of substrate (dThd, 5′DFUR, TFT or FdUrd) at 37° C. in the presence or absence of 10 μM TPi. At different time points (i.e. 0, 15, 30, 60, 120 minutes and 16 hours), 100 μl aliquots were withdrawn, transferred to Eppendorf tubes and heated at 95° C. for 3 min. Next, the samples were rapidly cooled on ice, exposed for 20 min to 200 μl ice-cold methanol and cleared by centrifugation at 15,000 rpm for 15 minutes. As a positive control, an enzyme activity assay with E. coli TP (Sigma) was performed. For this reaction, 0.025 U of TP were incubated with 200 μM of substrate in TP-buffer (10 mM Tris-HCl, pH 7.6, 1 mM EDTA, 2 mM potassium phosphate and 150 mM NaCl) in a total volume of 600 μl. Aliquots of 100 μl were withdrawn from the reaction mixture at several time points and treated as described above. The nucleosides were separated from their nucleobases on a reversed-phase RP-8 column (Merck, Darmstadt, Germany) and quantified by HPLC analysis (Aliance 2690, Waters, Milford, Mass.). The separation was performed by a linear gradient from 100% buffer B (50 mM NaH2PO4 and 5 mM heptane sulfonic acid, pH 3.2), to 20% buffer B and 80% acetonitrile. Retention times of thymine and thymidine were respectively 5.1 and 10.8 minutes. UV-based detection of all nucleosides was performed at 267 nm.

MCF-7 cells = test: Tumor cell proliferation assay, uninfected MCF-7 cells; type: cell-based, human; conditions: for Ratio (1)/(2) MCF-7: IC50 in the absence of TPi to IC50 in the presence of TPi; for IC50: uninfected MCF-7

| SMILES | Percent conversion of nucleoside to the free pyrimidine base in MCF-7/HYOR medium (M. hyorhinis TP; 2 hours) | Percent conversion of nucleoside to the free pyrimidine base in MCF-7/HYOR medium (M. hyorhinis TP; 16 hours) | Reduction of incorporation into nucleic acids in infected MCF-7/HYOR cells in comparison with uninfected MCF-7 cells (MCF-7/HYOR cells) | Percent conversion of nucleoside to the free pyrimidine base, recombinant E. coli TP (E. coli TP; 2 hours) | Percent conversion of nucleoside to the free pyrimidine base, recombinant E. coli TP (E. coli TP; 16 hours) | Ratio (1)/(2) MCF-7 (MCF-7 cells) | IC50 (MCF-7 cells; no TPi, 4 days, read-out: IC50 MCF-7 As such) | IC50 (MCF-7 cells; with 10 μM TPi, read-out: IC50 MCF-7 +TPi (10 μM)) | Incorporation into nucleic acids, infected versus uninfected MCF-7 cells (in words) (MCF-7/HYOR cells) | IC50 (MCF-7 cells; Homo sapiens, MCF7, 96 h, no TPi, 4 days, read-out: IC50 MCF-7 As such) | IC50 (MCF-7 cells; Homo sapiens, MCF7, with 10 μM TPi, read-out: IC50 MCF-7 +TPi (10 μM)) |
| --- | --- | --- | --- | --- | --- | --- | --- | --- | --- | --- | --- |
| O=c1[nH]c(=O)n([C@H]2C[C@H](O)[C@@H](CO)O2)cc1C(F)(F)F [TFT, 5-trifluorothymidine] | 8% | 55% | 40 fold | 48% | 85% | 1.8 | 390 ± 120 nM | 210 ± 110 nM | – | – | – |
| O=c1[nH]c(=O)n([C@H]2C[C@H](O)[C@@H](CO)O2)cc1F [FdUrd, 5-fluoro-2′-deoxyuridine] | 43% | 77% | – | 57% | 63% | 1.0 | – | – | did not affect | 3 ± 2 nM | 3 ± 2 nM |
